Experimental findings from PubChem BioAssay (NCI) are described below.

What all share (assay): NCI-60 cell line screen, 48 h
The subject of assay [1] is M14 melanoma.
Assay [2] deals with NCI-H23 lung.
In assay [3] the test system is OVCAR-4 ovarian.
In assay [4] the test system is OVCAR-5 ovarian.
Assay [5] relates to RXF 393 renal.
Assay [6] has as its system SF-539 CNS.
The subject of assay [7] is SNB-19 CNS.
The subject of assay [8] is SNB-75 CNS.
Assay [9] has as its system SW-620 colon.

SMILES strings stand for the structures.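 96-well plates; 48 h exposure; 5 concentrations. Endpoints by linear interpolation between flanking doses. Not reached: highest tested concentration assigned. GI50 marks 50% less growth. TGI: total growth inhibition.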

For `CN=NN(C)C(=O)NC`, the TGI in [1], in [2], in assay [3], in assay [4], in assay [5] and in [6] was > 100 µM in each case. Moreover, the TGI in assay [7], in assay [8] and in assay [9] was > 100 µM throughout.

`O=C(CN1CCCCC1)N1CCc2c([nH]c3ccccc23)C1c1cccnc1` (stereo not drawn): the TGI in assay [1], in [2], in assay [3], in assay [4], in assay [5] and in [6] was > 100 µM each time. The TGI in [7], in assay [8] and in assay [9] was > 100 µM each time.

As to `COC(=O)/C=C/C1C(C(=O)OC)C2(C(=O)OC)CCC1(C(=O)OC)N2` (stereo not drawn), the TGI in [1], in [2], in [3], in assay [4], in [5] and in [6] was > 100 µM in each case. In addition, the TGI in assay [7], in [8] and in [9] was > 100 µM each time.

For the molecule `N#CC(/C(=N/NC(=O)C(=O)NN)C(=O)NC12CC3CC(CC(C3)C1)C2)c1ccccc1` (stereo not drawn), the TGI in [1], in assay [2], in assay [3], in [4], in [5] and in assay [6] was > 100 µM each time. Further, the TGI in assay [7], in [8] and in assay [9] was > 100 µM in each case.

For `CCOC(=O)c1[nH]c(COC(C)=O)c(CCCOC(C)=O)c1CCCOC(C)=O`, the TGI in assay [2], in [3], in [4], in [5], in assay [6] and in assay [7] was > 100 µM throughout. Further, the TGI in [9] was > 100 µM.

Regarding `CCOC(=O)C1N(S(=O)(=O)c2ccc(C)cc2)CCC12C(c1ccc(OC)cc1)NC1CCCCC12` (stereo not drawn), the TGI in assay [1], in [2], in [3], in assay [4], in assay [5] and in assay [6] was > 100 µM throughout. The results for the TGI in assay [7], in [8] and in assay [9] were > 100 µM, 77.8 µM and > 100 µM, respectively.

With `CC1=C(C(=O)Nc2c(C)cccc2C)C(c2ccccc2Cl)C(C(=O)Nc2c(C)cccc2C)=C(C)N1`, the TGI in [1], in assay [2], in assay [3], in [4], in [5] and in assay [6] was > 100 µM each time. Also, the TGI in assay [7], in assay [8] and in assay [9] was > 100 µM each time.

Regarding `O=C(/C=C/c1c(O)ccc2ccccc12)c1ccc2ccccc2c1`, the TGI in [2], in assay [3], in [4], in [5], in [6] and in assay [7] was > 100 µM in each case. Also, the TGI in assay [8] and in [9] was > 100 µM throughout.

Consider `C#CC(=O)Nc1cccc(Nc2nc3c(c(NCc4ccccc4)n2)CCCC3)c1`, for which the GI50 in [1] was 0.261 µM; in assay [3], 0.291 µM; in assay [5], 0.0389 µM; in assay [6], < 0.01 µM; in [7] it was 0.591 µM. Besides, the TGI in [1] was 1.22 µM; in assay [3], 1.02 µM; in [5], 0.239 µM; in assay [6] it was < 0.01 µM; in [7] it was 1.98 µM.

For the molecule `CSC1(CC(=O)N(C)C)C(=O)Nc2ccccc21` (stereo not drawn), the TGI in assay [1], in assay [2], in assay [3], in [4], in assay [6] and in assay [7] was > 100 µM in each case. Moreover, the TGI in [8] and in [9] was > 100 µM throughout.

Turning to `CCCCCCCCCc1cc(=O)c2c(O)cccc2o1`, the TGI in assay [1], in [2], in assay [3], in [4], in assay [5] and in [6] was > 100 µM in each case. Moreover, the TGI in assay [7] is > 100 µM; in [8], > 10 µM; in [9], > 100 µM.

Consider `O=C(CCC(=O)Nc1cccc(Cl)c1)CC(=O)c1ccc(Cl)cc1`, for which the TGI in assay [1], in [2], in assay [3], in [4], in [6] and in assay [7] was > 100 µM throughout. The TGI in assay [8] and in [9] was > 100 µM in each case.

In the case of `CCOC(=O)[C@H](CCCNC(=O)OC(C)(C)C)NCc1ccc(OC)c(OC)c1`, the TGI in assay [1], in [2], in assay [3], in assay [4], in [5] and in assay [6] was > 100 µM in each case. Further, the TGI in [7], in assay [8] and in [9] was > 100 µM throughout.

As to `N#CC(C#N)=c1[nH]c2cccc3c2-c2c(cccc2c3=C(C#N)C#N)[nH]1`, the TGI in assay [1], in assay [2], in [3], in assay [4], in assay [5] and in assay [6] was > 100 µM throughout. Besides, the TGI in assay [7], in assay [8] and in [9] was > 100 µM each time.

For `CC(C)(C)N1CC2(CCCCC2)C1=O`, the TGI in assay [1], in assay [2], in [3], in [4], in assay [5] and in assay [6] was > 100 µM in each case. The TGI in [7], in assay [8] and in assay [9] was > 100 µM throughout.

`O=S(O)CCCCSSCc1ccccc1CSSCCCCS(=O)O`: the TGI in [1] was 26.7 µM; in [2] it was 61.8 µM; in assay [3], 18.3 µM; in assay [4], > 100 µM; in assay [5], 22.8 µM; in assay [6], 64.2 µM. In addition, the TGI in [7] was > 100 µM; in assay [8], > 100 µM; in [9], 89.5 µM.

Turning to `Cc1cc(C)n(CCNCCn2nc(C)cc2C)n1`, the TGI in assay [1], in assay [2], in assay [3], in [5], in assay [6] and in assay [7] was > 100 µM in each case. The TGI in assay [8] and in assay [9] was > 100 µM throughout.

As for `O=C(CCC/C(CC(=O)c1ccc(Br)cc1)=N\O)Nc1ccccc1`, the TGI in [1], in assay [2], in assay [3], in [4], in assay [5] and in assay [7] was > 100 µM throughout. Besides, the TGI in assay [8] and in assay [9] was > 100 µM in each case.

For the molecule `COc1ccccc1NC(=O)C1=C(C)NC(C)=C(C(=O)Nc2ccccc2OC)C1c1ccc([N+](=O)[O-])cc1`, the TGI in assay [1] is > 100 µM; in assay [2], > 100 µM; in assay [3] it was > 100 µM; in assay [4] it was 90.8 µM; in assay [5] it was > 100 µM; in assay [6], > 100 µM. The TGI in assay [7], in assay [8] and in [9] was > 100 µM throughout.

Consider `CCOC(=O)CCc1c(C)c2c(OC(C)=O)cc(OC(C)=O)cc2oc1=O`, for which the TGI was > 100 µM in assay [1]; > 100 µM in [2]; > 100 µM in assay [3]; > 100 µM in assay [4]; 73.3 µM in [5]; > 100 µM in assay [6]. The TGI in assay [7], in assay [8] and in assay [9] was > 100 µM in each case.

`O=C(Nc1ccc([N+](=O)[O-])cc1)C1C(=O)C(=O)N(c2ccc([N+](=O)[O-])cc2)C1=O` (stereo not drawn): the TGI in [1], in [2], in [4], in assay [5], in assay [6] and in assay [7] was > 100 µM throughout. For the same molecule, the figures for the TGI in assay [8] and in assay [9] were > 100 µM and 33.9 µM, respectively.

As to `O=C(/C=C/c1ccccc1)/C=C/c1ccccc1`, the TGI is 39.8 µM in assay [1]; 82.4 µM in assay [2]; 53.2 µM in [3]; > 100 µM in assay [4]; > 100 µM in assay [5]; 45 µM in [6]. Further, the TGI is > 100 µM in [8] and 40.8 µM in [9].

On to `O=C(CSc1nnc(-c2ccccc2NC(=O)C(F)(F)F)c(=O)[nH]1)NC(=O)Nc1ccccc1`, for which the TGI in assay [1], in assay [2], in assay [4], in [5], in assay [6] and in assay [7] was > 100 µM in each case. Besides, the results for the TGI in assay [8] and in [9] were 45 µM and > 100 µM, respectively.
